# Laboratory results reported in publication PMC9973354 (mBio, 2022).
# How the values were obtained:
# Assay type in all cases: cell-based, Pseudomonas aeruginosa
# PA14 ΔfpvA mutant [1] = experiment: MIC assay, ΔfpvA mutant; conditions: Pseudomonas aeruginosa, PA14
# Protocol: (§1) MIC assays were conducted as previously described ([13], [14]). Overnight cultures were grown in LB from a glycerol stock at 37°C with shaking (200 rpm). Subcultures in 10:90 (1:100 dilution) were cultured for 4 h. Cells were adjusted to an optical density at 600 nm (OD600) of 0.1/500 in 10:90. All compounds were serially diluted 2-fold in dimethyl sulfoxide (DMSO) or H2O at 75× the final concentration. Plates were sealed to prevent evaporation and incubated at 37°C overnight in a shaking incubator (200 rpm). The next day, the OD600 was determined with a plate reader (Thermo Scientific) and normalized to percent of growth of the vehicle control after subtracting the OD600 from blank media.
# PA14 ΔfpvA ΔfpvB mutant [2] = experiment: MIC assay, ΔfpvA ΔfpvB mutant; conditions: Pseudomonas aeruginosa, PA14
# Protocol: as §1
# PA14 = experiment: Growth curves with DSX and siderophores, WT PA14; conditions: DSX 64 μg/mL or pyoverdine 10 μg/mL alone, 20 h, 10:90
# Protocol: (§2) Supplementary file : FIG S1 (A) FpvB is expressed in WT PA14 and the ΔfpvA mutant grown in 10:90. PilF was used as a loading control for outer membrane proteins. (B) FpvA is expressed from WT PA14 grown in 10:90. […] PilF was used as a loading control for outer membrane proteins. (C) Growth curves of PA14 and mutants with DSX and different siderophores in 10:90. PA14, ΔfpvA, ΔfpvB, ΔfpvA ΔfpvB, and ΔpvdA ΔpchA strain growth. Blue indicates control, purple indicates treatment with 64 μg/mL DSX, yellow indicates treatment with 10 μg/mL pyoverdine (PA14), and red indicates treatment with 64 μg/mL DSX and 10 μg/mL pyoverdine (PA14). (D) ΔfpvA, ΔfpvA ΔfpvB, and ΔpvdA ΔpchA strain growth. Blue indicates control, purple indicates treatment with 64 μg/mL DSX, grey indicates treatment with 10 μg/mL ferrichrome, and red indicates treatment with 64 μg/mL DSX and 10 μg/mL ferrichrome. (E) ΔfpvA, ΔfpvA ΔfpvB, and ΔpvdA ΔpchA strain growth. […] Download FIG S1, EPS file, 8.5 MB.
# (§3) Another explanation for the susceptibility of the ΔfpvA mutant to DSX is that the mutant produces less pyoverdine compared to WT cells due to loss of the signaling cascade that controls siderophore production in response to its binding to FpvA ([25]). To differentiate whether the fpvA mutant was susceptible to DSX because of reduced pyoverdine production or because FpvB was a poor pyoverdine transporter, we treated the WT, ΔfpvA, ΔfpvB, and ΔfpvA ΔfpvB strains with DSX (64 μg/mL) without and with exogenous pyoverdine (10 μg/mL) for 20 h (Fig. 1; see also Fig. S1C). Growth of the ΔfpvA mutant should be restored if there are functional pyoverdine transporters. […] The growth of the ΔfpvA ΔfpvB mutant was inhibited by DSX and pyoverdine, confirming previously published results ([18]).
# PA14 ΔfpvA mutant [3] = experiment: Growth curves with DSX and siderophores, ΔfpvA; conditions: DSX 64 μg/mL or pyoverdine 10 μg/mL alone, 20 h, 10:90
# Protocol: as §2, §3
# (§4) As a control, a ΔpvdA ΔpchA mutant unable to make pyoverdine and pyochelin was also tested. Growth of this mutant was inhibited by DSX.
# PA14 ΔfpvB mutant = experiment: Growth curves with DSX and siderophores, ΔfpvB; conditions: DSX 64 μg/mL or pyoverdine 10 μg/mL alone, 20 h, 10:90
# Protocol: as §2, §3
# PA14 ΔfpvA ΔfpvB mutant [4] = experiment: Growth curves with DSX and siderophores, ΔfpvA ΔfpvB; conditions: DSX 64 μg/mL, pyoverdine 10 μg/mL, 20 h
# Protocol: as §2, §3, §4
# PA14 ΔpvdA ΔpchA mutant = experiment: Growth curves with DSX and siderophores, ΔpvdA ΔpchA; conditions: DSX 64 μg/mL, 20 h
# Protocol: as §2, §4
# [5] = test system: PA14 ΔfpvA ΔfpvB pHERD20T-fpvA; experiment: MIC assay, ΔfpvA ΔfpvB complemented with fpvA; conditions: complementation with fpvA, arabinose induction
# Protocol: (§5) The ΔfpvA ΔfpvB mutant was complemented in trans with pHERD20T-fpvA or pHERD20T-fpvB. pHERD20T is an arabinose-inducible vector with expression driven by the PBAD promoter under the control of AraC ([30]).
# as §1
# [6] = test system: PA14 ΔfpvA ΔfpvB pHERD20T-fpvB; experiment: MIC assay, ΔfpvA ΔfpvB complemented with fpvB; conditions: complementation with fpvB, arabinose induction
# Protocol: as §5, §1
# PA14 ΔfpvA mutants = experiment: Growth phenotypes of deletion mutants, ΔfpvA mutants; conditions: 64 μg/mL DSX, 10:90
# From the text: (§6) PA14, ΔfpvA, ΔfpvB, and ΔfpvA ΔfpvB strains treated with TS (A) and DSX (B) in 10:90. Green indicates growth, and white indicates no growth. Growth is expressed as percent of control. The PA14 ΔfpvA ΔfpvB strain complemented with pHERD20T, fpvA, or fpvB treated with TS (C) and DSX (D) in 10:90. […] All experiments are averaged from three independent biological replicates. Blue indicates growth and white indicates no growth. (H) Summary of growth phenotypes of WT PA14 and combinations of single, double, triple, and quadruple deletion mutants in fpvA, fpvB, fiuA, and foxA. […] Green indicates growth, whereas no growth is indicated in white. […] Representative plates are shown.
# (§7) If there were no transporters for a particular siderophore, the mutant would fail to grow due to iron restriction.
# [7] = test system: PA14 ΔfpvA ΔfpvB ΔfiuA ΔfoxA quadruple mutant; experiment: Growth phenotypes of deletion mutants, quadruple mutant; conditions: 64 μg/mL DSX, 10 μg/mL siderophores, 10:90
# From the text: as §6, §7
# [8] = test system: PA14 ΔfpvA ΔfpvB pHERD20T-fpvA T660C; experiment: MIC assay, ΔfpvA ΔfpvB expressing FpvA T660C; conditions: 10:90 + 2% arabinose
# From the text: FpvA T660C was used previously to measure pyoverdine-Fe^3+ binding affinity ([32]). However, this technique has not been applied to FpvB. A high-confidence structural model of FpvB was generated using AlphaFold2 ([33], [34]) and aligned with the structure of FpvA (PDB accession number 2O5P) to identify a residue suitable for labeling, with the assumption that FpvA and FpvB undergo similar conformational changes upon ferrisiderophore binding (see Fig. S3A through C in the supplemental material). Based on this analysis, FpvB R648 was mutated to Cys. FpvA T660C and FpvB R648C were each expressed in trans in the ΔfpvA ΔfpvB mutant. […] We could also detect expression by fluorescence microscopy with peripheral labeling consistent with expression in the outer membrane (Fig. 3B). Labeling was undetectable in empty vector and WT controls (see Fig. S4A in the supplemental material).
# Supplementary file : FIG S3 Overlay of FpvA and FpvB showing residues mutated to cysteine for labeling with maleimide dyes. FpvA (PDB accession number 2O5P) was superimposed with the AlphaFold2 model of FpvB. FpvA is shown in beige and FpvB in blue. […]
# MIC assays were conducted as previously described ([13], [14]). […] The next day, the OD600 was determined with a plate reader (Thermo Scientific) and normalized to percent of growth of the vehicle control after subtracting the OD600 from blank media.
# FpvB = experiment: Western blot of FLAG-tagged FpvB expression after compound treatment; conditions: WT PA14 fpvB-FLAG; 10 μg/mL siderophores, 64 μg/mL DSX, 10:90
# [9] = test system: PA14 ΔfpvA ΔfpvB pHERD20T-fpvA; experiment: Checkerboard assay TS and siderophores, FpvA expressed; conditions: 10:90 + 2% arabinose
# From the text: We investigated this hypothesis by treating the ΔfpvA ΔfpvB mutant complemented with fpvA or fpvB with TS and pyoverdine-Fe^3+. If pyoverdine competes with TS for the same binding site in the transporter, a reduction in TS susceptibility would be expected, as competition would decrease entry of the antibiotic into the cell. TS susceptibility decreased >8-fold with increasing concentrations of pyoverdine-Fe^3+ when FpvA was expressed (see Fig. S2A in the supplemental material).
# Supplementary file : FIG S2 Checkerboard assays of the PA14 ΔfpvA ΔfpvB strain complemented with fpvA and fpvB in trans with TS and siderophores. […] Checkerboards of the PA14 ΔfpvA ΔfpvB pHERD20T-fpvB strain with TS and enterobactin (G), ferrioxamine E (H), and arthrobactin (I). Results are averaged from three independent biological replicates. Cells in the assay were grown in 10:90 + 2% arabinose. Download FIG S2, EPS file, 2.2 MB.
# Checkerboards (8 rows by 8 columns) were conducted as previously described in a 96-well plate (Nunc) ([13], [14]). TS at 75× the final concentration dissolved in DMSO was added in columns from bottom to top in increasing concentrations. Siderophores at 75× the final concentration dissolved in DSMO were added from in rows from left to right in increasing concentrations. Four columns were used for vehicle controls (DMSO) and sterile controls. […] Plates were sealed to prevent evaporation and incubated at 37°C overnight in a shaking incubator (200 rpm). The next day, the OD600 was determined with a plate reader (Thermo Scientific) and normalized to percent of growth of the vehicle control (DMSO) after subtracting the OD600 from blank media.
# [10] = test system: PA14 mutant combinations that include ΔfoxA; experiment: Growth phenotypes of deletion mutants, ΔfoxA combinations; conditions: any mutant combination with ΔfoxA; 10 μg/mL ferrioxamine E, 10:90
# From the text: as §6, §7
smiles,measurement,setting,value
"O=C(O)c1ccc(-n2nc(-c3ccccc3O)nc2-c2ccccc2O)cc1 [DSX, deferasirox]",MIC,PA14 ΔfpvA mutant [1],8 µg/mL
same,MIC,PA14 ΔfpvA ΔfpvB mutant [2],8 µg/mL
same,growth versus control,PA14,growth was similar between the control and DSX conditions
same,growth versus control,PA14 ΔfpvA mutant [3],inhibited growth
same,growth versus control,PA14 ΔfpvB mutant,growth was similar between the control and DSX conditions
same,growth versus control,PA14 ΔfpvA ΔfpvB mutant [4],inhibited
same,growth versus control,PA14 ΔpvdA ΔpchA mutant,inhibited
same,growth with DSX,[5],restored growth
same,growth with DSX,[6],could not restore growth
same,growth in the presence of compound,PA14 ΔfpvA mutants,unable to grow
same,growth in the presence of compound,[7],failed to grow
same,growth with DSX,[8],restored growth with DSX
same,stimulation of FpvB expression,FpvB,None of the compounds stimulated expression
O=C1CCC(=O)N(O)CCCCCNC(=O)CCC(=O)N(O)CCCCCNC(=O)CCC(=O)N(O)CCCCCN1 [ferrioxamine E],effect of siderophore on TS susceptibility,[9],None of those siderophores reduced TS susceptibility
same,growth in the presence of compound,[10],inhibited
same,growth in the presence of compound,[7],failed to grow
